Measurements taken from PMC11761247, “Antioxidant, Anti-α-Glucosidase, Anti-Tyrosinase, and Anti-Acetylcholinesterase Components from Stem of Rhamnus formosana with Molecular Docking Study” (Antioxidants, 2024).
Like-named read-outs stand apart in the source and are kept apart here.

Assays:
[1] = ABTS radical scavenging activity; settings: for EC50: isolated compounds (Table 5), read-out: SC50 ABTS
Procedure: The analysis of ABTS was performed according to the previously published method. The ABTS solution (28 mM) was mixed with […] solution (9.6 mM) in a 1:1 ratio (v/v) and allowed to react in the dark at room temperature for 16 h to generate the ABTS radical solution. The ABTS radical solution was then diluted with EtOH until the absorbance at 740 nm reached 0.70 ± 0.02. The tested samples were dissolved in DMSO to prepare stock solutions, which were subsequently diluted to the desired concentrations with EtOH. In a 96-well plate, 190 μL of the diluted ABTS radical solution was mixed with 10 μL of each diluted sample solution. The mixture was allowed to react in the dark at room temperature for 6 min. The absorbance at 740 nm was then measured using an ELISA reader. The ABTS radical scavenging activity was calculated by the following equation:(2) Scavenging rate (%)=(OD0−OD1)/OD0×100 where OD0 is absorbance of the control and OD1 is that of the tested sample.

[2] = Ferric reducing antioxidant power (FRAP)
Procedure: The analysis was performed using the published method. The working solution was prepared by mixing acetate buffer (pH 3.6), ferric chloride solution (20 mM), and TPTZ solution (10 mM TPTZ in 40 mM HCl) in a 10:1:1 ratio. Then, 900 µL of this solution was warmed to 37 °C and mixed with 100 µL of the diluted sample, blank, or standard in a microcentrifuge tube. The tubes were vortexed and incubated in a dry bath at 37 °C for 40 min. Absorbance was measured at 593 nm. The standard curve was linear from 0 to 100 mM Trolox, and results were expressed as mM TE/g dry weight.

[3] = DPPH free radical scavenging activity; settings: for EC50: isolated compounds (Table 5), read-out: SC50 DPPH
Procedure: DPPH analysis was performed according to the previously published procedure. A 400 μM DPPH radical solution was prepared in EtOH. The tested samples were dissolved in DMSO to prepare stock solutions, which were then diluted to the desired concentrations with EtOH. In a 96-well plate, 100 μL of each diluted tested sample solution was mixed with 100 μL of the DPPH radical solution (200 μM). The mixture was allowed to react in the dark at room temperature for 30 min. After the reaction, the absorbance at 520 nm was measured using an ELISA reader. DPPH radical scavenging activity was calculated by the following equation:(1) Scavenging rate (%)=(OD0−OD1)/OD0 where OD0 is absorbance of the control and OD 1 is that of the tested sample.

[4] = biological target: T1, α-glucosidase (Saccharomyces cerevisiae, UniProt P53341); experiment: α-Glucosidase inhibitory activity (p-NPG substrate); format: biochemical
T1 construct: purchased Sigma-Aldrich
T1 sequence (P53341 whole entry): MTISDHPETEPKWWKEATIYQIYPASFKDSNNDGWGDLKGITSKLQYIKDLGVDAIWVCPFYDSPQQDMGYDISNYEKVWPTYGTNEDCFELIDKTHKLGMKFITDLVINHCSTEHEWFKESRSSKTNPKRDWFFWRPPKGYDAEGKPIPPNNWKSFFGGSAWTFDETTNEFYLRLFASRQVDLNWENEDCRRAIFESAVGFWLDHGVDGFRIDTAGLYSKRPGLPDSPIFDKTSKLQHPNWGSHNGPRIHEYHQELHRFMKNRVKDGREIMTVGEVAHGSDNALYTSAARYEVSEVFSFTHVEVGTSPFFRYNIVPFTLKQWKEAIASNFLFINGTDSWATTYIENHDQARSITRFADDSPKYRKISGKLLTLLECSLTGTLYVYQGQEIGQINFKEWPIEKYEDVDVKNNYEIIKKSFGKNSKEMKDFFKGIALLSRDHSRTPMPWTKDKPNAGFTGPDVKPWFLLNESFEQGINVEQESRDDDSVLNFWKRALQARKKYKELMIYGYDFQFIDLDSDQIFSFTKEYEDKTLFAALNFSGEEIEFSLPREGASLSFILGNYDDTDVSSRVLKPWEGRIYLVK

[5] = Superoxide radical scavenging activity (NBT/PMS/NADH); settings: for EC50: isolated compounds (Table 5), read-out: SC50 Superoxide
Procedure: The superoxide scavenging activity assay was performed based on the published method. The superoxide radical was prepared in a 16 mM Tris-HCl buffer (pH 8.0) containing 50 µL of NBT (300 µM), 50 µL of PMS (120 µM), and 50 µL of different concentrations of the tested sample. The reaction was initiated by adding 50 µL of the NADH (468 µM) solution to the mixture and incubated at room temperature for 5 min. The activity of the samples was determined by calculating the decrease in absorbance measured at 560 nm by the following equation:(3) Scavenging rate (%)=(OD0−OD1)/OD0×100 where OD0 is absorbance of the control and OD1 is that of the tested sample.

[6] = biological target: T2, AChE (Electrophorus electricus, UniProt O42275); experiment: biochemical
T2 construct: purchased Sigma-Aldrich
T2 sequence (O42275 24-633): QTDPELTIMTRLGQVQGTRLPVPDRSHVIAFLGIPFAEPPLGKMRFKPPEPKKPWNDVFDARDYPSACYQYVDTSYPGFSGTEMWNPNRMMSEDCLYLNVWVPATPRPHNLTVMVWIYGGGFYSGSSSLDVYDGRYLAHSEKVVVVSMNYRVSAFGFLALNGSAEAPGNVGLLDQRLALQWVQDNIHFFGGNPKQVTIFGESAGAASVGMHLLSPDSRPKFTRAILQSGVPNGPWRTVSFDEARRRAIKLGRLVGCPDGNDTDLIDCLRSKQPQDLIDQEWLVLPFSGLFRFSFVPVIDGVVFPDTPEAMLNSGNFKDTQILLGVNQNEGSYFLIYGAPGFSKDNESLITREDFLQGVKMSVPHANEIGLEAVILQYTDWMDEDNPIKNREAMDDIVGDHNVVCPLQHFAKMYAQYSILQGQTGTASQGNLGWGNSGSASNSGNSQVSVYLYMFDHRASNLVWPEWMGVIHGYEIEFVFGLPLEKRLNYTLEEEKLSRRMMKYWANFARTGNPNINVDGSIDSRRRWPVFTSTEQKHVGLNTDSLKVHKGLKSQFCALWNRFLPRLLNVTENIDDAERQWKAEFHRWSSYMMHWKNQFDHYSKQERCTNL
Procedure: Determination of AChE inhibition was conducted based on the reported method with slight modifications. Sodium phosphate buffer (0.1 M, pH 8.0, 140 µL), test compound solution (20 µL), enzyme solution (15 µL of AChE at 0.2 units/mL), and DTNB (15 mM, 10 µL) were mixed and incubated for 10 min at room temperature. The reaction was then initiated by adding 10 µL of the substrate (AChI, 15 mM).

[7] = solvent extracts, concentration for 50% free radical scavenging
[8] = isolated compounds (Table 5), Trolox equivalents

| SMILES | EC50 [1] | TE FRAP [2, 8] | EC50 [3] | IC50 [4] | EC50 [5] | IC50 [6] | other results |
| --- | --- | --- | --- | --- | --- | --- | --- |
| Cc1cc(C(C)(C)C)c(O)c(C(C)(C)C)c1 [BHT, butylated hydroxytoluene, reference compound] | 37.5 ± 4.31 µM | 5712.61 ± 176.27 mM/g | 708 ± 10.8 µM |  |  |  | SC50 ABTS [1, 7]: 9.12 ± 1.85 µg/mL; TE FRAP ([2]; solvent extracts (Table 2), Trolox equivalents in mM per gram of extract): 3196.39 ± 115.26 mM/g; SC50 DPPH [3, 7]: 156.04 ± 14.31 µg/mL |
| COc1cc(O)c2c(c1)C(=O)c1cc(C)cc(O)c1C2=O [Physcion (5), physcion] | > 200 µM | <1 mM/g | > 200 µM | > 800 µM | > 200 µM | 76 ± 1.34 µM |  |
| O=C(/C=C/c1ccc(O)c(O)c1)O[C@@H]1C[C@](O)(C(=O)O)C[C@@H](O)[C@H]1O [Chlorogenic acid, chlorogenic acid, reference compound] |  |  |  |  |  |  | IC50 ([6]; isolated compounds (Table 6), read-out: IC50 AChE (converted)): 303 ± 25.2 µM; IC50 ([6]; solvent extracts (Table 3), read-out: IC50 AChE (converted)): 496 µM |
| O=c1c(O)c(-c2ccc(O)cc2)oc2cc(O)cc(O)c12 [Kaempferol (1), kaempferol] | 15.3 ± 0.94 µM | 1046.16 ± 23.78 mM/g | 61.7 ± 7.36 µM |  | 271 ± 20.7 µM |  | TE FRAP ([2]; isolated compounds (Table 5), Trolox equivalents, listed as kaempferol (1)): 1046.16 ± 23.78 mM/g |
| O=c1c(O)c(-c2ccc(O)c(O)c2)oc2cc(O)cc(O)c12 [Quercetin (2), quercetin] | 5.7 ± 0.92 µM | 1026.73 ± 16.69 mM/g | 16.1 ± 2.62 µM |  | 85.8 ± 4.76 µM |  | TE FRAP ([2]; isolated compounds (Table 5), Trolox equivalents, listed as quercetin (2)): 1026.73 ± 16.69 mM/g |
| Cc1cc(O)c2c(c1)C(=O)c1cccc(O)c1C2=O [Chrysophanol (4), chrysophanol] | > 200 µM | <1 mM/g | > 200 µM | 604 ± 44.8 µM | > 200 µM | > 400 µM |  |
| Cc1cc(O)c2c(c1)C(=O)c1cc(O)cc(O)c1C2=O [Emodin (3), emodin] | > 200 µM | <1 mM/g | > 200 µM | 58.9 ± 3.39 µM | 232 ± 15.9 µM | 77.6 ± 6.28 µM |  |
| O=c1cc(-c2ccc(O)c(O)c2)oc2cc(O[C@@H]3O[C@H](CO)[C@@H](O)[C@H](O)[C@H]3O)cc(O)c12 [Cynaroside, reference compound] |  |  |  |  | 20 ± 1.7 µM |  | SC50 Superoxide [5, 7]: 12.03 ± 4.20 µg/mL |
